From article PMC8016363, “Discovery of a Remarkable Methyl Shift Effect in the Vanilloid Activity of Triterpene Amides” (Journal of Natural Products, 2020)

Legend:
[1] = biological target: T1, recombinant human TRPV1 (hTRPV1) (Homo sapiens, UniProt Q8NER1); experiment: TRPV1 channel assay: intracellular Ca2+ elevation (Fluo-4) in HEK-293 cells overexpressing hTRPV1; type: cell-based; set-up: expressed in transfected cells; host or cells: HEK-293 cells, stably transfected, selected with Geneticin
T1 sequence (Q8NER1 whole entry): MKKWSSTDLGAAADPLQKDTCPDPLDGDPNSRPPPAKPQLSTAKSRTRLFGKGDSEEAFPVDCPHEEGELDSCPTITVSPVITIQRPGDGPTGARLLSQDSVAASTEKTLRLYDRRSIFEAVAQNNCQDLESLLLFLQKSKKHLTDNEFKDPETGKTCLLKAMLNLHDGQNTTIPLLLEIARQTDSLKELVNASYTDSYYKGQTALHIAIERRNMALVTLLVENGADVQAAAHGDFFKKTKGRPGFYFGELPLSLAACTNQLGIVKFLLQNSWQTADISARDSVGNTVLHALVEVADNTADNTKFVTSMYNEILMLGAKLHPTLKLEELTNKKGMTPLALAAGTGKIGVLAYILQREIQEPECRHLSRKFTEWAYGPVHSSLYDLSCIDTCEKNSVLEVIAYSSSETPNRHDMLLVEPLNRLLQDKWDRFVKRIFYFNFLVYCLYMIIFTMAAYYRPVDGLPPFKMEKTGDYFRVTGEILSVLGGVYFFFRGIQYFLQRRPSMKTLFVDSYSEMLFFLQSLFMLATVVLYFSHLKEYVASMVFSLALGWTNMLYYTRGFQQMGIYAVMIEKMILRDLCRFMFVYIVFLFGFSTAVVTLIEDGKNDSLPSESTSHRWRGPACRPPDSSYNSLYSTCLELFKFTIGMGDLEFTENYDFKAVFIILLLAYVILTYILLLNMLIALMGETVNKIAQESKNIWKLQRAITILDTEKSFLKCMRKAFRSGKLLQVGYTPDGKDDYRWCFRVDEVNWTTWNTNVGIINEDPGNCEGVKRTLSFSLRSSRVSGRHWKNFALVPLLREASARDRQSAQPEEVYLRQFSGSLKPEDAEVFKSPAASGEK

[2] = biological target: T1, recombinant human TRPV1 (hTRPV1); set-up: expressed in transfected cells; method as in PMID 23932918, PMID 30496739; settings: previously reported; cited from earlier work

Row | Compound | inhibition at 25 µM ([1]; HEK293, read-out: inhibition of the capsaicin response) [%] | behaviour at TRPV1 (in words) [2] | efficacy (relative to ionomycin 4 μM) ([1]; HEK-293 cells stably transfected with hTRPV1, [Ca2+]i increase normalized to the response to ionomycin 4 μM) | EC50 ([1]; HEK-293 cells stably transfected with hTRPV1, half-maximal increase in [Ca2+]i, read-out: potency EC50) [µM] | IC50 ([1]; read-out: IC50 (capsaicin 0.1 μM), HEK-293-hTRPV1, compound added 5 min before capsaicin 100 nM, capsaicin alone = 100%) [µM]
1 | CC1(C)CC[C@]2(C(=O)O)CC[C@]3(C)C(=CC[C@@H]4[C@@]5(C)CC[C@H](O)C(C)(C)[C@@H]5CC[C@]43C)[C@@H]2C1 [2a, oleanolic acid] | 20 ± 3 | weak antagonists | – | – | –
2 | C[C@H]1[C@H](C)CC[C@]2(C(=O)O)CC[C@]3(C)C(=CC[C@@H]4[C@@]5(C)CC[C@H](O)C(C)(C)[C@@H]5CC[C@]43C)[C@H]12 [3a, ursolic acid] | – | weak antagonists | – | – | –
3 | COc1cc(CNC(=O)[C@]23CC[C@@H](C)[C@H](C)[C@H]2C2=CC[C@@H]4[C@@]5(C)CC[C@H](O)C(C)(C)[C@@H]5CC[C@@]4(C)[C@]2(C)CC3)ccc1O [3b, Ursoloyl vanillamide] | – | – | 16 ± 1 | 5.4 ± 2.3 | 7.5 ± 0.7
